Source: patent US7998989B2, “2-Imino-1,3-thiazoline-based compounds and T-type calcium channel inhibitors containing the same” (Korea Institute of Science and Technology, priority 2007, dated 2011)

Columns and labels:
[1] = biological target: T1, α1G T-type calcium channel (Homo sapiens, UniProt O43497); assay: Assay for % inhibiting activity against T-type calcium channel using FDSS6000 (fluo-3 calcium imaging, KCl activation); assay type: cell-based; conditions: 10 μM; HEK293 cells stably expressing α1G T-type calcium channel and Kir2.1; compounds of the examples
T1 construct: host or cells: HEK293
T1 sequence (O43497 whole entry): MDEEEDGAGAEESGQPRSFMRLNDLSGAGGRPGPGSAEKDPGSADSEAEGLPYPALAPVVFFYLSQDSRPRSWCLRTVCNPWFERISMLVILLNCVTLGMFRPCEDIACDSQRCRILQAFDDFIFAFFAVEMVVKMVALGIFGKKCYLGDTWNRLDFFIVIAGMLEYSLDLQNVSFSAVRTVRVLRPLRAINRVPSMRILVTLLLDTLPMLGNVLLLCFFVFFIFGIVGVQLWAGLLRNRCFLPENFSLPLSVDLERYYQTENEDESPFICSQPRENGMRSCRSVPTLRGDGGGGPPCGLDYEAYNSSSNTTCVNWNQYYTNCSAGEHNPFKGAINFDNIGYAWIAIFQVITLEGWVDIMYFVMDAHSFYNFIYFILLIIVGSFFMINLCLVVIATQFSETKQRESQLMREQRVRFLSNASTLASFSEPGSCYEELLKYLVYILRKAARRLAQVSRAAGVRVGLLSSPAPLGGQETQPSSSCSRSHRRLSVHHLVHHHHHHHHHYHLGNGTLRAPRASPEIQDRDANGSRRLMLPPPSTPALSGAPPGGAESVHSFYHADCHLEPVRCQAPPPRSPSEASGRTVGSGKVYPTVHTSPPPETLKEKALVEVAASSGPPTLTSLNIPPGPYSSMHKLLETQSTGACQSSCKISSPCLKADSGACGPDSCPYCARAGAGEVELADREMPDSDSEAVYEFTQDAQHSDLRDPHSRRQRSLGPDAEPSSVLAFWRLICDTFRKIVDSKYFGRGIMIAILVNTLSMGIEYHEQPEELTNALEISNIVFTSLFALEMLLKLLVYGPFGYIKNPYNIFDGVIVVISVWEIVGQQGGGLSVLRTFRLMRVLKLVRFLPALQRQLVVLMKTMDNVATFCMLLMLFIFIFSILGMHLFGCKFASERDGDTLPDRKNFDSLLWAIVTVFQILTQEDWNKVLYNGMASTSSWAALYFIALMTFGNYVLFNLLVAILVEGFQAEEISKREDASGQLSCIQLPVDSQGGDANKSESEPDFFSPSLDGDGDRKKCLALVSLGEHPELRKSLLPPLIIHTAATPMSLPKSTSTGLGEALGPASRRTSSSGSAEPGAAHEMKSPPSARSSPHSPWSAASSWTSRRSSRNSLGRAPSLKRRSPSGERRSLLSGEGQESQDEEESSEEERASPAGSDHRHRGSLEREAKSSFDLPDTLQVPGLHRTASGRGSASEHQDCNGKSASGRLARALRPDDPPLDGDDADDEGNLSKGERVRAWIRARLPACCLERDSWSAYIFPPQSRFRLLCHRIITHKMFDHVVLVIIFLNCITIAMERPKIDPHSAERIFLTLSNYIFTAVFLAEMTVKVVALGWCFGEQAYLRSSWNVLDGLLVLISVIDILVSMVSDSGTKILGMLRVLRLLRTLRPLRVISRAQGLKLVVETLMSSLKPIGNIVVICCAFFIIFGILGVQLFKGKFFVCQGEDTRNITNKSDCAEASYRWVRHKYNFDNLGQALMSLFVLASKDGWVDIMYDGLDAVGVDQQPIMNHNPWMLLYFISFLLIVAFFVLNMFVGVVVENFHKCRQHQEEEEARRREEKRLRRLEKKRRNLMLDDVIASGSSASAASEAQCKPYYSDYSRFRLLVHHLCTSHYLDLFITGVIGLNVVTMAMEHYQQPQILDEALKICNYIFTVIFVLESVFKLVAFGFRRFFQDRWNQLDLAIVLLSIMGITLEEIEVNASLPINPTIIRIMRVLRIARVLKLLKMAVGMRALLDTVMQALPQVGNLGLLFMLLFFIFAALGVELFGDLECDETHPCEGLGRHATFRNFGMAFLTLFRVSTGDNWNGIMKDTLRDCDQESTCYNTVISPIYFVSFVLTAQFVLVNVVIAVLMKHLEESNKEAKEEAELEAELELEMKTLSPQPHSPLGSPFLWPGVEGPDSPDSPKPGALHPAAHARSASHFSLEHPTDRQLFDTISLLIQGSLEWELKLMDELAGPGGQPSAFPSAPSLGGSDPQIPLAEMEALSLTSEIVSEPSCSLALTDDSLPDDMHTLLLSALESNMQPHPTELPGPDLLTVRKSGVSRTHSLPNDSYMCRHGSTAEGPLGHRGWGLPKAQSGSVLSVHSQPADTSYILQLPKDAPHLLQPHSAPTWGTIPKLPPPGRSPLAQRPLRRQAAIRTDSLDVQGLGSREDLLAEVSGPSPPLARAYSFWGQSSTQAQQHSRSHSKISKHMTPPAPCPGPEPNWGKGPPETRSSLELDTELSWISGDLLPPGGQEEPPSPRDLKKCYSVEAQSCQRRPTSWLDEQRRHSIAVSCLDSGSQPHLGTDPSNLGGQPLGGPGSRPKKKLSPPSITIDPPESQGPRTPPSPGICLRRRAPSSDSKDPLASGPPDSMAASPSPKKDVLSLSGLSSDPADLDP
Procedure, shortened: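 Percent inhibition derived from […] area against untreated control (100%), after 75 s compound pre-exposure and 75 mM KCl activation. Cells: HEK293 with stable α1G plus Kir2.1, fluo-3/AM-labelled (5 μM), assayed in pH 7.4 HEPES containing 10 mM CaCl2.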

[2] = biological target: T1, α1G T-type calcium channel; assay: Electrophysiological whole cell patch clamp measurement of T-type calcium channel current in HEK293 cells; assay type: cell-based; conditions: HEK293 cells expressing α1G; for HEK293cell (% Inhibition) 10 μM: inhibition of peak current; for IC50: read-out: IC50 (a1G)
Procedure: In the present invention, in order to examine an efficient inhibitor against the T-type calcium channel, a primary assay for T-type calcium channel inhibiting activity was conducted by a high-efficient assay using FDSS6000, wherein mammal HEK293 cell lines (originated from human kidney carcinoma cells) that specifically express α1G of the T-type calcium channel was used for primary assay. Through the primary assay, compounds that show meaningful inhibition effects were selected. The selected compounds were used in a second assay for T-type calcium channel inhibiting activity using an electrophysiological whole cell patch clamp method, wherein mammal HEK293 cell lines (originated from human kidney carcinoma cells) that specifically express α1G of the T-type calcium channel was used for the second assay. Mibefradil, which had been developed as a T-type calcium channel inhibitor, was used as a reference.
10% Fetal bovine serum (FBS) and 1% penicillin/streptomycin (v/v) were added to Dulbecco's modified Eagle's medium (DMEM), to be used as a media solution. The cells were cultured in an incubator under a wet condition of 95% air/5% CO2 and a temperature of 36.5° C. The media solution was refreshed every 3 or 4 days, and the cells were sub-cultured every week. Only the cells that expressed α1G T-type calcium channel were cultured using a G-418 (0.5 mg/ml) solution. The recording of the cells used in the T-type calcium channel activity analysis was conducted at 2-7 days after the cells were culturing on a cover slip coated with poly-L-lysine (0.5 mg/ml) when conducting every sub-culture. For analysis at a single cell level, the T-type calcium channel current was measured by an electrophysiological whole cell patch clamp method using EPC-9 amplifier (HEKA, German).
As solutions for analyzing T-type calcium channel activity, a solution including NaCl 140 mM, CaCl2 2 mM, and HEPES10 mM (pH 7.4, Sigma; 4-(2-hydroxyethyl)piperazine-1-ethanesulfonic acid) was used as an extracellular solution, and a solution including KCl 130 mM, HEPES 10 mM (Sigma), EGTA 11 mM (ethylene glycol-bis(2-aminoethylether)-N,N,N′,N′-tetraacetic acid, Sigma), and MgATP 5 mM (pH 7.4, Sigma) was used as an intracellular solution. The protocol for T-type calcium channel activity that is activated at low voltage is as follows. A micro-glass electrode with resistance of 3-4 MΩ wherein the above-prepared intracellular solution was filled was pricked into a single cell, to make a whole-cell recording mode. Thereafter, the cell membrane potential was fixed to −100 mV, and then the inward current due to the T-type calcium channel activity when hypopolarizing to −30 mV (50 ms duration) was measured every 10 seconds.
Each compound to be tested was dissolved in 100% dimethylsulfoxide (DMSO) to make a 10 mM stock solution. The effect of the compound on the T-type calcium channel current compound was initially examined in the stock solution with the 1000-times diluted concentration of 10 μM (containing 0.1% DMSO) and then examined in the solution with the concentration for IC50 measurement (mostly 0.1 to 100 μM), to obtain an IC50 value. More specifically, the cells were treated in each compound together with the extracellular solution for 30 to 60 seconds, and the inhibition level of peak current induced by the compound was calculated as a percentage, to obtain the % inhibition value as shown in Table 4.

| Substance | FDSS (% inhibition)/10uM [1] [%] | HEK293cell (% Inhibition) 10 μM [2] [%] | IC50 [2] [nM] |
| --- | --- | --- | --- |
| (2-cycloheptylimino-3-methyl-1,3-thiazolidine-4-yl)-N-(4-isopropylphenyl)-acetamide hydrochloride [KHG24133] | 69.18 | 96.0 ± 1.9 | 420 ± 10 |
| (2-cycloheptylimino-3-methyl-1,3-thiazolidine-4-yl)-N-(2-chloro-4-fluorophenyl)-acetamide hydrochloride [KHG24120] | 60.08 | 82.7 ± 0.9 | 2750 ± 250 |
| [2-(1-adamantylimino)-3-ethyl-1,3-thiazolidine-4-yl]-N-(4-ethylphenyl)-acetamide hydrochloride [KHG24847] | 72.23 | 95.5 ± 2.7 | 350 ± 10 |
| [2-(1-adamantylimino)-3-cyclopropyl-1,3-thiazolidine-4-yl]-N-(4-trifluoromethylphenyl)-acetamide hydrochloride [KHG24790] | 73.05 | 94.8 ± 0.9 | 240 ± 10 |
| [2-(1-adamantylimino)-3-n-propyl-1,3-thiazolidine-4-yl]-N-(4-ethylphenyl)-acetamide hydrochloride [KHG24814] | 76.32 | 96.9 ± 1.8 | 300 ± 10 |
| [2-(1-adamantyl)imino-3-methyl-1,3-thiazolidine-4-yl]-N-(3,5-ditrifluoromethylphenyl)-acetamide hydrochloride [KHG24241] | 70.68 | 92.2 ± 0.5 | 170 ± 20 |
| [2-(1-adamantyl)imino-3-methyl-1,3-thiazolidine-4-yl]-N-(4-ethylphenyl)-acetamide hydrochloride [KHG24236] | 69.55 | 94.4 ± 0.6 | 230 ± 20 |
| (2-cyclohexylimino-3-methyl-1,3-thiazolidine-4-yl)-N-(4-phenoxyphenyl)-acetamide hydrochloride [KHG23355] | 58.95 | 88.1 ± 2.0 | 1510 ± 170 |
| (2-cyclohexylimino-3-methyl-1,3-thiazolidine-4-yl)-N-(4-bromophenyl)-acetamide hydrochloride [KHG23354] | 54.26 | 83.0 ± 1.4 | 2470 ± 180 |
| (2-cycloheptylimino-3-methyl-1,3-thiazolidine-4-yl)-N-(2,4-difluorophenyl)-acetamide hydrochloride [KHG24127] | 49.69 | 80.8 ± 0.6 | 2660 ± 330 |
| (2-cyclohexylimino-3-methyl-1,3-thiazolidine-4-yl)-N-(4-chloro-2-fluorophenyl)-acetamide hydrochloride [KHG23361] | 62.4 | 71.4 ± 3.4 | 4090 ± 700 |
| (2-cycloheptylimino-3-methyl-1,3-thiazolidine-4-yl)-N-(4-fluorobenzyl)-acetamide hydrochloride [KHG24159] | 48.52 | 76.8 ± 1.4 | 3570 ± 290 |
| (2-cyclohexylimino-3-methyl-1,3-thiazolidine-4-yl)-N-(4-isopropylphenyl)-acetamide hydrochloride [KHG23364] | 53 | 97.0 ± 0.7 | 870 ± 180 |
| (2-cycloheptylimino-3-methyl-1,3-thiazolidine-4-yl)-N-(4-methoxybenzyl)-acetamide hydrochloride [KHG24161] | 31.29 | 81.2 ± 1.3 | 1670 ± 510 |
| [2-(1-adamantylimino)-3-cyclopropyl-1,3-thiazolidine-4-yl]-N-(4-n-butylphenyl)-acetamide hydrochloride [KHG24789] | 78.21 | 95.1 ± 0.7 | 190 ± 20 |
| (2-cyclohexylimino-3-methyl-1,3-thiazolidine-4-yl)-N-(4-methylphenyl)-acetamide hydrochloride [KHG24077] | 46.41 | 57.0 ± 1.5 | 7220 ± 360 |
| (2-cyclohexylimino-3-methyl-1,3-thiazolidine-4-yl)-N-(3,5-ditrifluoromethylphenyl)-acetamide hydrochloride [KHG24075] | 73.72 | 94.1 ± 1.5 | 320 ± 20 |
| (2-cyclohexylimino-3-methyl-1,3-thiazolidine-4-yl)-N-(4-chlorobenzyl)-acetamide hydrochloride [KHG24113] | 54.13 | 64.8 ± 1.4 | 5400 ± 410 |
| [2-(1-adamantylimino)-3-n-propyl-1,3-thiazolidine-4-yl]-N-(4-fluorophenyl)-acetamide hydrochloride [KHG24811] | 71.82 | 94.8 ± 0.7 | 600 ± 40 |
| (2-cycloheptylimino-3-methyl-1,3-thiazolidine-4-yl)-N-(4-methoxyphenyl)-acetamide hydrochloride [KHG24119] | 52.85 | 72.9 ± 1.0 | 4440 ± 280 |
| (2-cycloheptylimino-3-methyl-1,3-thiazolidine-4-yl)-N-(4-fluorophenyl)-acetamide hydrochloride [KHG24118] | 66 | 80.3 ± 1.1 | 1880 ± 220 |
| (2-cyclohexylimino-3-methyl-1,3-thiazolidine-4-yl)-N-(4-n-butylphenyl)-acetamide hydrochloride [KHG23365] | 60.16 | 97.6 ± 0.5 | 600 ± 60 |
| (2-cyclohexylimino-3-methyl-1,3-thiazolidine-4-yl)-N-(4-trifluoromethylphenyl)-acetamide hydrochloride [KHG24074] | 65.2 | 94.7 ± 0.5 | 660 ± 60 |
| (2-cycloheptylimino-3-methyl-1,3-thiazolidine-4-yl)-N-(4-ethylphenyl)-acetamide hydrochloride [KHG24117] | 67.09 | 93.0 ± 2.5 | 570 ± 70 |
| [2-(1-adamantyl)imino-3-methyl-1,3-thiazolidine-4-yl]-N-(4-methylphenyl)-acetamide hydrochloride [KHG24235] | 61.65 | 93.2 ± 1.9 | 1170 ± 80 |
| (2-cycloheptylimino-3-methyl-1,3-thiazolidine-4-yl)-N-(2-fluoro-5-nitrophenyl)-acetamide hydrochloride [KHG24129] | 61.39 | 90.0 ± 0.4 | 1570 ± 110 |
| [2-(1-adamantyl)imino-3-methyl-1,3-thiazolidine-4-yl]-N-(4-chlorophenyl)-acetamide hydrochloride [KHG24238] | 73.31 | 95.9 ± 1.8 | 530 ± 20 |
| [2-(1-adamantylimino)-3-cyclopropyl-1,3-thiazolidine-4-yl]-N-(4-isopropylphenyl)-acetamide hydrochloride [KHG24788] | 72.88 | 95.3 ± 0.4 | 310 ± 20 |
